Data as given in US20110213038A1, “CONTROL OF BED BUGS” (priority 2008, published 2011).

What was measured:
[1] = test system: adult bed bugs Cimex lectularius; test: Vapor exposure of concealed bed bugs (folded mattress ticking) in sealed jar, 72 hour mortality; format: in vivo; conditions: one drop (about 25-30 mg) on filter paper in sealed 16 oz. glass jar
Experimental: This test was conducted using concealed bed bugs. One drop (about 25-30 mg) of a naturally occurring aromatic test compound was applied to a filter paper and placed with a 16 oz. glass jar (3½ inches diameter×3⅞ inches high) containing ten adult bed bugs Cimex lectularius of both sexes. A piece of folded mattress ticking was also placed in the jar to allow the bed bugs a place to hide. The jar was then sealed with a plastic lid. Five replicates of ten bed bugs were exposed to each of the test compounds. Mortality was assessed at 72 hours. A control jar with no test compound was also included in the testing. The mortality results were as follows.

[2] = test system: adult bed bugs Cimex lectularius; test: Vapor exposure of unconcealed bed bugs in sealed jar, 24 hour mortality; format: in vivo; conditions: one drop (about 25-30 mg) on filter paper in sealed 16 oz. glass jar
Experimental: This test was undertaken employing unconcealed bed bugs. One drop (about 25-30 mg) of a naturally occurring aromatic test compound was applied to a filter paper and placed with a 16 oz. glass jar (3½ inches diameter×3⅞ inches high) containing ten adult bed bugs Cimex lectularius of both sexes. The jar was then sealed with a plastic lid. Five replicates of ten bed bugs were exposed to each of the test compounds. The test formulations were assessed for 24 hour mortality. A control jar with no test compound was also included in the testing.
The test was repeated with several other test compounds in the same manner: […]

[3] = repeated test with other compounds

| Molecule | 72 hr Mean Mortality % [1] | 24 hr Mean Mortality % ([2]; first test) | 24 hr Mean Mortality % [2, 3] |
| --- | --- | --- | --- |
| C=C[C@](C)(O)CCC=C(C)C [l-Linalool] | 68% | 100.0% |  |
| C=C[C@@](C)(O)CCC=C(C)C [d-Linalool] |  |  | 92.0% |
| CC(O)c1ccccc1 (stereo not shown) [Styralyl alcohol] | 91.8% |  | 89.8% |
| CC(C)[C@@H]1CC[C@@H](C)C(=O)C1 [Tetrahydrocarvone] | 16.7% |  | 58.1% |
| C=C(C)[C@H]1CC=C(C)C(=O)C1 [d-Carvone] |  |  | 47.8% |
| l-Carvone | 46.7% | 73.5% |  |
